Measured values taken from PMC7673538 (PLoS Biology, 2020).
“And” between values parts separate entries of the source, which are not always exact repeats. Equal entries are not always repeated. Where two headings read alike, the source gives them in different places.

Experiments:
in vitro [1] = details: monkey
in vitro [2] = details: human
EV-D68 (strain Fermon) = format: cell-based, enterovirus D68
[3] = system: representative EVs and RVs; format: cell-based
HRV-B14 = format: cell-based, human rhinovirus
EV-A71 (strain BrCr) = format: cell-based, enterovirus A71
CV-A24v = experiment: microbe, parasite or virus in culture; format: cell-based, coxsackievirus A24v; details: for EC50: Coxsackievirus
CV-B3 = experiment: microbe, parasite or virus in culture; format: cell-based, coxsackievirus B3; details: Enterovirus B, CVB3, BGM
CV-B3 (strain Nancy) = format: cell-based, coxsackievirus B3
HRV-A2 = experiment: microbe, parasite or virus in culture; format: cell-based, human rhinovirus
human NET = target: T1, human NET (Homo sapiens, UniProt P23975); format: cell-based; details: for NET, Mean (Figure 8B): Control = 100; for NET, Mean as % (Figure 8B): Control = 100%
T1 construct: expressed in transfected cells; host or cells: HEK293 (gift of Dr. Hoener, F. Hoffmann-La Roche)

EV-A71 = experiment: microbe, parasite or virus in culture; format: cell-based, enterovirus A71

T1 sequence (P23975 whole entry): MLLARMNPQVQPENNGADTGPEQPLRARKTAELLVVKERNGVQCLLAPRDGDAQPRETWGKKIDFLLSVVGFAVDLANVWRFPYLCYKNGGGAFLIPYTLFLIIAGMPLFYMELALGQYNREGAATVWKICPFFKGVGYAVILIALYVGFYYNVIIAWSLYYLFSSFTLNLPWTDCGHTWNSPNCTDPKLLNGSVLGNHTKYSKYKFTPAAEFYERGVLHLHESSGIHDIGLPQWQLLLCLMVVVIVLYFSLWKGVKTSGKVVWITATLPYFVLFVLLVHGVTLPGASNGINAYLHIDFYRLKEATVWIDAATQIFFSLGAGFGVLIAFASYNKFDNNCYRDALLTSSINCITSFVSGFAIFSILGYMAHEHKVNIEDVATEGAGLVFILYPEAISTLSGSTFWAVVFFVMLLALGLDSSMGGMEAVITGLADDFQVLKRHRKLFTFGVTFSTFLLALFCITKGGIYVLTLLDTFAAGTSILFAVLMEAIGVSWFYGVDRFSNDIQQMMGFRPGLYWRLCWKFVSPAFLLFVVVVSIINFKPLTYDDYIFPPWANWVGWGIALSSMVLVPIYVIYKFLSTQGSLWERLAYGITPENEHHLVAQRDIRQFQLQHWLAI

Compound: COc1ccc(N(Cc2ccc(F)cc2)C(=O)c2cc[nH]c2)cc1 [Compound 12a, N-(4-Fluorobenzyl)-N-(4-methoxyphenyl)-1H-pyrrole-3-carboxamide]
- CC50 (in vitro [1]; CC50): > 100000 nM
- CC50 (in vitro [1]; CC50 BGM Average): > 100000 nM
- CC50 (in vitro [1]; Exp 1 CC50 BGM): > 100000 nM
- CC50 (in vitro [1]; Exp 2 CC50 BGM): > 100000 nM
- CC50 (in vitro [2]; CC50): > 100000 nM
- CC50 (in vitro [2]; CC50 Hap1 Average): > 100000 nM
- CC50 (in vitro [2]; Exp 1 CC50 Hap1): > 100000 nM
- CC50 (in vitro [2]; Exp 2 CC50 Hap1): > 100000 nM
- virus titer, TCID50/ml (Figure 2A) (EV-D68 (strain Fermon); compound concentration 0.01 µM): 6000000 TCID50/ml and 4677352 TCID50/ml
- virus titer, TCID50/ml (Figure 2A) (EV-D68 (strain Fermon); compound concentration 0.1 µM): 7000000 TCID50/ml and 4677352 TCID50/ml and 8000000 TCID50/ml
- virus titer, TCID50/ml (Figure 2A) (EV-D68 (strain Fermon); compound concentration 3 µM): 21379.6 TCID50/ml and 35481.3 TCID50/ml and 31622.8 TCID50/ml
- virus titer, TCID50/ml (Figure 2A) (EV-D68 (strain Fermon); compound concentration 100 µM): 31622.8 TCID50/ml and 21379.6 TCID50/ml and 35481.3 TCID50/ml
- inhibition of contemporary/clinical isolates of EV-A71, CV-A24v and EV-D68 (in words) [3]: inhibited all clinical isolates of EV-A71, CV-A24v, and EV-D68 tested
- spectrum of antiviral activity (in words) [3]: inhibited all representative EVs and RVs
- virus titer, TCID50/ml (Figure 2A) (HRV-B14; compound concentration 0.3 µM): 10000000 TCID50/ml and 16982440 TCID50/ml
- virus titer, TCID50/ml (Figure 2A) (HRV-B14; compound concentration 3 µM): 10000000 TCID50/ml and 16982440 TCID50/ml
- virus titer, TCID50/ml (Figure 2A) (EV-A71 (strain BrCr); compound concentration 1 µM): 316228 TCID50/ml
- virus titer, TCID50/ml (Figure 2A) (EV-A71 (strain BrCr); compound concentration 3 µM): 316.228 TCID50/ml
- virus titer, TCID50/ml (Figure 2A) (EV-A71 (strain BrCr); compound concentration 10 µM): 316.228 TCID50/ml
- virus titer, TCID50/ml (Figure 2A) (EV-A71 (strain BrCr); compound concentration 30 µM): 316.228 TCID50/ml
- virus titer, TCID50/ml (Figure 2A) (EV-A71 (strain BrCr); compound concentration 100 µM): 316.228 TCID50/ml
- virus titer, TCID50/ml (Figure 2A) (EV-A71 (strain BrCr); compound concentration 150 µM): 316.228 TCID50/ml
- Figure 7 dose-response raw data, CV-A24v (triplicate values) (CV-A24v; Concentration 0.0046 µM): 10.497 and 11.7005 and 9.1598
- Figure 7 dose-response raw data, CV-A24v (triplicate values) (CV-A24v; Concentration 0.0137 µM): 16.1819 and 13.1094 and 20.3605
- Figure 7 dose-response raw data, CV-A24v (triplicate values) (CV-A24v; Concentration 0.0412 µM): 16.1819 and 13.1094 and 20.3605
- Figure 7 dose-response raw data, CV-A24v (triplicate values) (CV-A24v; Concentration 0.1235 µM): 12.9865 and 12.4949 and 21.3437
- Figure 7 dose-response raw data, CV-A24v (triplicate values) (CV-A24v; Concentration 0.3704 µM): 12.7407 and 14.2155 and 15.1987
- Figure 7 dose-response raw data, CV-A24v (triplicate values) (CV-A24v; Concentration 1.1111 µM): 10.0369 and 10.7743 and 14.83
- Figure 7 dose-response raw data, CV-A24v (triplicate values) (CV-A24v; Concentration 3.3333 µM): 9.791 and 10.5285 and 14.2155
- Figure 7 dose-response raw data, CV-A24v (triplicate values) (CV-A24v; Concentration 11.1111 µM): 82.2926 and 86.3728 and 89.8506
- Figure 7 dose-response raw data, CV-A24v (triplicate values) (CV-A24v; Concentration 33.3333 µM): 113.496 and 111 and 111.553
- Figure 7 dose-response raw data, CV-A24v (triplicate values) (CV-A24v; Concentration 100 µM): 106.3 and 102.374 and 110.232
- EC50 (CV-A24v; HeLa R19, read-out: EC50 CV-A24v strain 110386): 1940 ± 70 nM
- EC50 (CV-A24v; HeLa R19, read-out: EC50 CV-A24v strain 110389): 3770 ± 320 nM
- EC50 (CV-A24v; HeLa R19, read-out: EC50 CV-A24v strain 110390): 1910 ± 550 nM
- EC50 (CV-A24v; HeLa R19, read-out: EC50 CV-A24v strain 110392): 2320 ± 230 nM
- EC50 (CV-B3): 40 ± 20 nM
- EC50 (CV-B3; read-out: EC50 BGM Average): 35 nM
- EC50 (CV-B3; read-out: Exp 1 EC50 BGM): 20 nM
- EC50 (CV-B3; read-out: Exp 2 EC50 BGM): 50 nM
- virus titer, TCID50/ml (Figure 2A) (CV-B3 (strain Nancy); compound concentration 0.001 µM): 316227800 TCID50/ml and 467735100 TCID50/ml
- virus titer, TCID50/ml (Figure 2A) (CV-B3 (strain Nancy); compound concentration 0.01 µM): 467735100 TCID50/ml and 316227800 TCID50/ml
- Figure 7 dose-response raw data, HRV-A2 (triplicate values) (HRV-A2; Concentration 0.0412 µM): 16.3585 and 16.9681 and 15.3831
- Figure 7 dose-response raw data, HRV-A2 (triplicate values) (HRV-A2; Concentration 0.3704 µM): 15.1392 and 18.0654 and 15.3831
- Figure 7 dose-response raw data, HRV-A2 (triplicate values) (HRV-A2; Concentration 1.1111 µM): 18.0654 and 16.8462 and 24.4056
- Figure 7 dose-response raw data, HRV-A2 (triplicate values) (HRV-A2; Concentration 3.3333 µM): 11.1156 and 18.0654 and 21.7232
- Figure 7 dose-response raw data, HRV-A2 (triplicate values) (HRV-A2; Concentration 11.1111 µM): 48.3946 and 57.9264 and 41.9398
- Figure 7 dose-response raw data, HRV-A2 (triplicate values) (HRV-A2; Concentration 33.3333 µM): 99.5652 and 104.147 and 100.034
- Figure 7 dose-response raw data, HRV-A2 (triplicate values) (HRV-A2; Concentration 100 µM): 89.5652 and 104.147 and 110.034
- EC50 (HRV-A2; Human rhinovirus sp., HRVA2, HeLa R19, read-out: EC50 HRV-A2): 8510 ± 220 nM
- NET, Mean (Figure 8B) (human NET; 1µM): 121.035
- NET, Mean as % (Figure 8B) (human NET; 1µM): 121%
- NET, Mean (Figure 8B) (human NET; 100µM): 112.597
- NET, Mean as % (Figure 8B) (human NET; 100µM): 113%
- inhibition of NET function (in words) (human NET; HEK293 cells expressing human NET, 1 μM or 100 μM): neither 12a, 19b, 19d, nor the combined compound 12b inhibited
- Figure 7 dose-response raw data, EV-A71 (triplicate values) (EV-A71; Concentration 0.0046 µM): 12.3336 and 15.0352 and 19.2639
- Figure 7 dose-response raw data, EV-A71 (triplicate values) (EV-A71; Concentration 0.0137 µM): 12.3336 and 12.2161 and 11.2764
- Figure 7 dose-response raw data, EV-A71 (triplicate values) (EV-A71; Concentration 0.0412 µM): 12.0987 and 12.2161 and 13.2733
- Figure 7 dose-response raw data, EV-A71 (triplicate values) (EV-A71; Concentration 0.1235 µM): 11.9812 and 14.0955 and 13.6257
- Figure 7 dose-response raw data, EV-A71 (triplicate values) (EV-A71; Concentration 0.3704 µM): 12.5685 and 16.7972 and 13.6257
- Figure 7 dose-response raw data, EV-A71 (triplicate values) (EV-A71; Concentration 1.1111 µM): 12.3336 and 15.0352 and 19.2639
- Figure 7 dose-response raw data, EV-A71 (triplicate values) (EV-A71; Concentration 3.3333 µM): 12.3336 and 15.0352 and 19.2639
- Figure 7 dose-response raw data, EV-A71 (triplicate values) (EV-A71; Concentration 11.1111 µM): 119.819 and 116.746 and 110.126
